Reference: PMC9834240, “Senescent cells perturb intestinal stem cell differentiation through Ptk7 induced noncanonical Wnt and YAP signaling” (Nature Communications, 2023)
Several values for one entry are separate records, joined by “and”; a condition that tells them apart may be missing. Equal entries are not always repeated.

How the values were obtained:
Assay type in all cases: cell-based
[1] = tested on: mouse intestinal organoids; test: cystic organoid percentage, organoids in conditioned media (SCM/QCM) with or without inhibitors or antibodies; settings: for effect on cystic organoid phenotype: SCM-exposed organoids; for percentage of cystic organoids: Fig. 3c, dialyzed, individual mice, n = 3; for cystic organoid percentage: DMSO = 0
Description: Twenty-four hours before collecting conditioned media (CM), MEFs were washed with serum-free DMEM twice, and serum-free DMEM was added. After 24 h in serum-free DMEM, this CM was collected, filtered using Steriflip filters (Millipore, #SE1M179M6) to remove cell debris, and concentrated using centrifugal filter units (Amicon ultra-15 centricon; Millipore, # UFC900324). […] CM was filtered and dialyzed for 24–48 h to remove the inhibitors before concentration.
(§1) The jejunum part of the small intestine was removed, flushed with PBS, opened longitudinally, then cut into 0.5 cm pieces. The collected tissues were washed with ice cold PBS multiple times by vortexing and incubated in PBS containing 2.5 mM EDTA for 5 min at 37 °C. After gentle shaking and aspiration, tissues were incubated in PBS containing 5 mM EDTA for 7 min at 37 °C. Tissues were then washed with PBS to remove EDTA and vigorously shaken to release crypts. The released crypts were passed through 70 μm strainers, washed with PBS, and pelleted by centrifugation at 200 × g.
(§2) 3-4 biological replicates of organoids from different mice were used per condition. Organoids were cultured in the indicated media, inhibitors, antibodies and/or recombinant proteins for 5 d and fixed in 4% formaldehyde in PBS. Organoids were imaged with a 4× Plan Fluor objective (NA: 0.13, Nikon) on a Nikon Ti-E inverted microscope equipped with a Neo scMOS camera (Andor, Oxford Instruments), a linear encoded automated stage (Applied Scientific Instrumentation), all run by NIS Elements software (Nikon). Organoids were imaged in brightfield and images covering the whole well were stitched and focused into one image projection with an extended depth of focus module (EDF; Nikon). One hundred to 200 organoids per replicate per condition were counted and used for quantification. The number of budding organoids in each condition was normalized by the number of budding organoids in untreated or DMSO treated controls to calculate cystic organoid percentage:1 Cysticorganoidpercentage=100×1−Numberofbuddingorganoidsfromexperiment/Numberofbuddingorganoidsfromcontrol

[2] = tested on: mouse intestinal organoids; test: cystic organoid percentage, co-culture with quiescent or senescent intestinal fibroblasts; set-up: key: % = 100×(1 − budding organoids treated/budding organoids control); settings: relative to DMSO = 0
Description: as §2
Mouse intestinal fibroblasts were purchased from Cell Biologics (#C57-6231) and cultured in Complete Fibroblast Medium (Cell Biologics, M2267) at 37 °C and 5% CO2. Cellular quiescence and senescence in mouse intestinal fibroblasts were induced by the similar methods described earlier for MEFs with minor modifications. Briefly, cellular quiescence was induced by culturing the fibroblasts in low serum (0.5% FBS), and cellular senescence was induced by 500 nM doxorubicin treatment for 5 days (doxorubicin; Sigma-Aldrich, #44583). Once cellular quiescence or senescence was induced, MEFs were maintained at 37 °C, 5% CO2, and 3% O2 for another 5 days. The quiescent or senescent fibroblasts were dissociated using 0.05% Trypsin-EDTA (Gibco, #25300-054) and counted for seeding. The same number of quiescent and senescent fibroblasts (5.2 × 10^4 cells) were mixed with intestinal organoids making total volume of 20 μl of Matrigel: organoid culture media mix, which was mounted on a 48 well plate.

[3] = tested on: mouse intestinal organoids; test: inhibition of Wnt5a-induced cystic organoids; set-up: key to cystic organoids (sheet SF.5b): % cystic = 100×(1 − budding organoids treated/control); settings: relative to Untreated = 0
Description: as §1, with “g. Resuspended crypts were mixed with Matrigel (Corning, #356231; Lot#8218007) and pipetted into culture plates. After mixture of crypts and Matrigel solidified, IntestiCult Organoid Growth Medium (Stem Cell Technologies, #06005; Lots #1000021927, #1000034230, #1000037372) was added. Seven days after seeding, organoids were resuspended in dissociation buffer (Gentle Cell Dissociation Reagent; Stem Cell Technologies, #07174), dissociated by pipetting, and seeded for experiments.” for “g.”
as §2

With C=CC[C@@H]1/C=C(\C)C[C@H](C)C[C@H](OC)[C@H]2O[C@@](O)(C(=O)C(=O)N3CCCC[C@H]3C(=O)O[C@H](/C(C)=C/[C@@H]3CC[C@@H](O)[C@H](OC)C3)[C@H](C)[C@@H](O)CC1=O)[C@H](C)C[C@@H]2OC [FK506] the “effect on cystic organoid phenotype” value [1] was “had no effect on this phenotype”, the “cystic organoids (sheet SF.5d)” value ([2]; 10 uM FK506, no fibroblasts, replicate 1) was 16.7523 and the “cystic organoids (sheet SF.5d)” value ([2]; 10 uM FK506, no fibroblasts, replicate 2) was 26.0945. The “cystic organoids (sheet SF.5d)” value ([2]; 10 uM FK506, no fibroblasts, replicate 3) was 24.3439, the “cystic organoids (sheet SF.5d)” value ([2]; Q + 10uM FK506 (quiescent fibroblasts), replicate 1) was 27.9243 and the “cystic organoids (sheet SF.5d)” value ([2]; Q + 10uM FK506 (quiescent fibroblasts), replicate 2) was 44.452. For the same molecule, the “cystic organoids (sheet SF.5d)” value ([2]; Q + 10uM FK506 (quiescent fibroblasts), replicate 3) was 38.0019, the “cystic organoids (sheet SF.5d)” value ([2]; SEN + 10uM FK506 (senescent fibroblasts), replicate 1) was 52.1362 and the “cystic organoids (sheet SF.5d)” value ([2]; SEN + 10uM FK506 (senescent fibroblasts), replicate 2) was 72.7766. The “cystic organoids (sheet SF.5d)” value ([2]; SEN + 10uM FK506 (senescent fibroblasts), replicate 3) was 37.8556.
For CNC(=O)[C@H](Cc1c[nH]c2ccccc12)NC(=O)[C@@H](CC(=O)NO)CC(C)C [GM6001], the “percentage of cystic organoids” value ([1]; SCM from MEFs exposed to GM6001 (20 uM, 24 h)) was 29.2391% and 41.0714% and 39.5302%.
In the case of O=C(CSc1nc2c(c(=O)n1-c1ccccc1)SCC2)Nc1ccc(-c2ccccc2)cn1 [IWP-L6], the cystic organoid percentage ([1]; SF.3d, SCM + inhibitor, replicate 1) is reported as 46.6221, the cystic organoid percentage ([1]; SF.3d, SCM + inhibitor, replicate 2) is reported as 58.2456 and the cystic organoid percentage ([1]; SF.3d, SCM + inhibitor, replicate 3) is reported as 31.9347.
CN([C@@H](Cc1ccc(OS(=O)(=O)c2cccc3cnccc23)cc1)C(=O)N1CCN(c2ccccc2)CC1)S(=O)(=O)c1cccc2cnccc12 [KN62] was tested, and the cystic organoid percentage ([1]; Fig.5l, 10uM, no conditioned medium, replicate 1) was 0.2849, the cystic organoid percentage ([1]; Fig.5l, 10uM, no conditioned medium, replicate 2) was -0.03848 and the cystic organoid percentage ([1]; Fig.5l, 10uM, no conditioned medium, replicate 3) was 4.343. The cystic organoid percentage ([1]; Fig.5l, QCM + 10uM, replicate 1) was -7.21, the cystic organoid percentage ([1]; Fig.5l, QCM + 10uM, replicate 2) was -3.018 and the cystic organoid percentage ([1]; Fig.5l, QCM + 10uM, replicate 3) was -12.8255. For the same molecule, the cystic organoid percentage ([1]; Fig.5l, SCM + 10um, replicate 1) was -3.501, the cystic organoid percentage ([1]; Fig.5l, SCM + 10um, replicate 2) was 1.186 and the cystic organoid percentage ([1]; Fig.5l, SCM + 10um, replicate 3) was 0.111.
With O=C(O)c1ccc2c3c1cccc3c(=O)n1c3ccccc3nc21 [STO609] the cystic organoid percentage ([1]; Fig.5l, 5uM, no conditioned medium, replicate 1) was -8.274, the cystic organoid percentage ([1]; Fig.5l, 5uM, no conditioned medium, replicate 2) was -5.955 and the cystic organoid percentage ([1]; Fig.5l, 5uM, no conditioned medium, replicate 3) was -8.683. It also gave a cystic organoid percentage ([1]; Fig.5l, QCM + 5uM, replicate 1) of -3.426, a cystic organoid percentage ([1]; Fig.5l, QCM + 5uM, replicate 2) of 1.872 and a cystic organoid percentage ([1]; Fig.5l, QCM + 5uM, replicate 3) of -3.616. It also gave a cystic organoid percentage ([1]; Fig.5l, SCM + 5um, replicate 1) of 16.8399, a cystic organoid percentage ([1]; Fig.5l, SCM + 5um, replicate 2) of 8.659 and a cystic organoid percentage ([1]; Fig.5l, SCM + 5um, replicate 3) of 6.694.
In the case of CC(C)C[C@H](CC(=O)NO)C(=O)N[C@@H](Cc1ccc2ccccc2c1)C(=O)N[C@@H](C)C(=O)NCCN [TAPI-1], the “percentage of cystic organoids” value ([1]; SCM from MEFs exposed to TAPI-1 (50 uM, 24 h)) is reported as 21.6102% and 25.641% and 30.6707%.
O=C(CCl)c1ccccc1Nc1cccc(C(F)(F)F)c1 [TED347] was tested, and the cystic organoid percentage ([1]; Fig.7e, 2 uM, no conditioned medium, replicate 1) was -4.167, the cystic organoid percentage ([1]; Fig.7e, 2 uM, no conditioned medium, replicate 2) was 2.041 and the cystic organoid percentage ([1]; Fig.7e, 2 uM, no conditioned medium, replicate 3) was 3.815. For the same molecule, the cystic organoid percentage ([1]; Fig.7e, QCM + 2 uM, replicate 1) was 3.646, the cystic organoid percentage ([1]; Fig.7e, QCM + 2 uM, replicate 2) was 2.9703 and the cystic organoid percentage ([1]; Fig.7e, QCM + 2 uM, replicate 3) was -0.09671. It also gave a cystic organoid percentage ([1]; Fig.7e, SCM + 2 uM, replicate 1) of 13.1944, a cystic organoid percentage ([1]; Fig.7e, SCM + 2 uM, replicate 2) of 21.2963 and a cystic organoid percentage ([1]; Fig.7e, SCM + 2 uM, replicate 3) of 18.1818. For the same molecule, the “effect on cystic organoid phenotype” value [1] was “reduced the percentage of cystic organoids”.
In the case of CN1CCN(CCCN2c3ccccc3Sc3ccc(C(F)(F)F)cc32)CC1 [Trifluoperazine A], the “cystic organoids (sheet SF.5b)” value ([3]; 100 nM Trifluoperazine A, no Wnt5a, replicate 1) is reported as 1.842, the “cystic organoids (sheet SF.5b)” value ([3]; 100 nM Trifluoperazine A, no Wnt5a, replicate 2) is reported as -0.6895 and the “cystic organoids (sheet SF.5b)” value ([3]; 100 nM Trifluoperazine A, no Wnt5a, replicate 3) is reported as -1.481. The “cystic organoids (sheet SF.5b)” value ([3]; 100 nM Trifluoperazine A, no Wnt5a, replicate 4) was 3.596, the “cystic organoids (sheet SF.5b)” value ([3]; 1 uM Trifluoperazine A, no Wnt5a, replicate 1) was -0.2581 and the “cystic organoids (sheet SF.5b)” value ([3]; 1 uM Trifluoperazine A, no Wnt5a, replicate 2) was -2.568. The “cystic organoids (sheet SF.5b)” value ([3]; 1 uM Trifluoperazine A, no Wnt5a, replicate 3) was -0.6142, the “cystic organoids (sheet SF.5b)” value ([3]; 1 uM Trifluoperazine A, no Wnt5a, replicate 4) was -2.171 and the “cystic organoids (sheet SF.5b)” value ([3]; Wnt5a + 100 nM Trifluoperazine A, replicate 1) was 12.7683. The “cystic organoids (sheet SF.5b)” value ([3]; Wnt5a + 100 nM Trifluoperazine A, replicate 2) was 12.5989, the “cystic organoids (sheet SF.5b)” value ([3]; Wnt5a + 100 nM Trifluoperazine A, replicate 3) was 11.621 and the “cystic organoids (sheet SF.5b)” value ([3]; Wnt5a + 100 nM Trifluoperazine A, replicate 4) was 16.7645. The “cystic organoids (sheet SF.5b)” value ([3]; Wnt5a + 1 uM Trifluoperazine A, replicate 1) was 9.106, the “cystic organoids (sheet SF.5b)” value ([3]; Wnt5a + 1 uM Trifluoperazine A, replicate 2) was 10.2184 and the “cystic organoids (sheet SF.5b)” value ([3]; Wnt5a + 1 uM Trifluoperazine A, replicate 3) was 3.882. For the same molecule, the “cystic organoids (sheet SF.5b)” value ([3]; Wnt5a + 1 uM Trifluoperazine A, replicate 4) was 10.8434.
With Verteporfin the “effect on cystic organoid phenotype” value [1] was “strongly reduced the cystic organoid percentage”.
